Source: patent US10227312B2, “Glucosylceramide synthase inhibitors for the treatment of diseases” (BIOMARIN PHARMACEUTICAL INC., priority 2015, dated 2019)

What was measured:
K562 cells = experiment: K562 Cell-Based Assay; conditions: Homo sapiens, NBD-Ceramide, LCMS, read-out: Assay 2 (Cellular Assay; K562 cells) IC50
Experimental: This assay was modified based on the study by Gupta et al. (J. Lipid Res. 2010, 51, 866). K562 cells were seeded into 12-well plates at 3×10^5 cells/well/mL in RPMI-1640 medium with 5% FBS and incubated at 37° C. for 24 h. One μL of a compound described herein at desired concentration (10 mM, 1 mM, 0.1 mM, 0.01 mM, 0.001 mM and 0.0001 mM in DMSO) or DMSO was added into the corresponding well and mixed. Cells were incubated at 37° C. for 4 h. Then 100 μL of RPMI-1640 medium containing 110 μM of NBD-Ceramide, 11% BSA, 5% FBS, and corresponding concentration of a compound described herein was added into each well and mixed. Cells were incubated for additional 0.5 h at 37° C., followed by washing the cells with ice-cold PBS (pH 7.4) twice with centrifugation and resuspended with 50 μL cold PBS+1% Triton X-100. The cell lysate was sonicated for 15 min before adding equal volume of methanol for LCMS analysis. A small aliquot of cell lysate was used to determine protein concentration by BCA assay kit. The HPLC equipment and methods used in Assay 1 were used in this assay as well and IC50's were calculated.

[1] = biological target: glucosylceramide synthase (GCS) (Canis lupus familiaris, UniProt A0A8I3MXG6); experiment: GCS Enzymatic Assay (MDCK lysates); type: biochemical, canine; conditions: MDCK cell lysate, C6-NBD-Ceramide, 37° C. for 1 hour, LC/MS; read-out: Assay 1 (Enzyme Assay; MDCK lysates) IC50
Experimental: Madin-Darby canine kidney (MDCK) cell lysate was prepared using M-PER Mammalian Protein Extraction Reagent (Thermal Scientific) in the presence of a protease inhibitor cocktail (Roche). Protein concentration was determined using BCA assay kit (Pierce). […] 0.1% DMSO was used as mock treatment or control. The reaction was terminated by adding 100 μL acetonitrile solution and subjected to LC/MS analysis.
The quantitative analysis of NBD-Ceramide and glucosylceramide was performed on a Shimadzu ultra-fast liquid chromatography (Shimadzu, Japan) coupled with API 4000 triple quadrupole mass spectrometer (Applied Biosystems, Concord, Ontario, Canada). Sample separation was conducted on a Waters Xbridge™ BEH130 C18, 100 mm×4.6 mm i.d, 3.5 μm (Milford, Mass., USA). The mobile phase consisted of water and acetonitrile supplemented with 0.1% formic acid (v/v). The flow rate was 1.0 mL/min. The initial mobile phase was 20% acetonitrile and was ramped in a linear fashion to 50% acetonitrile in 0.4 min. From 0.4 to 1.5 min, the gradient was ramped to 98% acetonitrile, and then was held at […] until 8.0 min. Acetonitrile was reset to 20% in 1.5 min, and maintained until 10.0 min. The total run time was 10.0 min. The MS/MS detection was performed in ESI positive mode. […] The cell lysate was diluted with equal volume of acetonitrile. Aliquots of 50 μL diluted samples were added to 1.5 mL tubes, and 100 μL of acetonitrile containing internal standard (100 ng/mL tolbutamide) were added for protein precipitation. The mixture were vortexed and then centrifuged at 13000 rpm for 10 min. 70 μL of supernatant were mixed with 140 μL of H2O and the final solution were injected for LC/MS/MS analysis and IC50's and/or percent inhibitions calculated.

Sequence of glucosylceramide synthase (GCS) (A0A8I3MXG6 1-394): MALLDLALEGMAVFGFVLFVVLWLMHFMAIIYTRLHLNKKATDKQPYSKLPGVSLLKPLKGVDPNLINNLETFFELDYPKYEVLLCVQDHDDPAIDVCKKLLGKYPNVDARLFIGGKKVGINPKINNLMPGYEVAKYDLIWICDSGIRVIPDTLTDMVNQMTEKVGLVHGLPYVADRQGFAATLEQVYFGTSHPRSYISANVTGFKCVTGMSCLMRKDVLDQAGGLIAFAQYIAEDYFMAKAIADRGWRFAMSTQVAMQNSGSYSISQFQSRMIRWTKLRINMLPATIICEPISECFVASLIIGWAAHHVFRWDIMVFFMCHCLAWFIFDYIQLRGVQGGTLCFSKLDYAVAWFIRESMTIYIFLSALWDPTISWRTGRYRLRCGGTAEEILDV

IC50 (K562 cells) [µM]	IC50 [1] [µM]	SMILES
≤ 0.01	< 0.01	O=C(N[C@H](CN1CCCC1)[C@H](O)c1ccc(OC2CC2)c(Cl)c1)C1=NOCc2cc(-c3ccc(F)cc3)ccc21 [Example 1, N-((1R,2R)-1-(3-chloro-4-cyclopropoxyphenyl)-1-hydroxy-3-(pyrrolidin-1-yl)propan-2-yl)-7-(4-fluorophenyl)-1H-benzo[d][1,2]oxazine-4-carboxamide]
≤ 0.01	< 0.01	O=C(N[C@H](CN1CCCC1)[C@H](O)c1ccc(OC2CC2)c(F)c1)C1=NOCc2cc(-c3ccc(F)cc3)ccc21 [Example 2, N-((1R,2R)-1-(4-cyclopropoxy-3-fluorophenyl)-1-hydroxy-3-(pyrrolidin-1-yl)propan-2-yl)-7-(4-fluorophenyl)-1H-benzo[d][1,2]oxazine-4-carboxamide]
≤ 0.01	< 0.01	O=C(N[C@H](CN1CCCC1)[C@H](O)c1cc(F)c2c(c1)OCCO2)C1=NOCc2cc(-c3ccc(F)cc3)ccc21 [Example 3, N-((1R,2R)-1-(8-fluoro-2,3-dihydrobenzo[b][1,4]dioxin-6-yl)-1-hydroxy-3-(pyrrolidin-1-yl)propan-2-yl)-7-(4-fluorophenyl)-1H-benzo[d][1,2]oxazine-4-carboxamide]
≤ 0.01	0.01 to 0.1	O=C(N[C@H](CN1CCCC1)[C@H](O)c1ccc(OC2CC2)cc1)C1=NOCc2cc(-c3ccc(F)cc3)ccc21 [Example 4, N-((1R,2R)-1-(4-cyclopropoxyphenyl)-1-hydroxy-3-(pyrrolidin-1-yl)propan-2-yl)-7-(4-fluorophenyl)-1H-benzo[d][1,2]oxazine-4-carboxamide]
≤ 0.01	0.01 to 0.1	O=C(N[C@H](CN1CCC1)[C@H](O)c1ccc(OC2CC2)c(Cl)c1)C1=NOCc2cc(-c3ccc(F)cc3)ccc21 [Example 5, N-((1R,2R)-3-(azetidin-1-yl)-1-(3-chloro-4-cyclopropoxyphenyl)-1-hydroxypropan-2-yl)-7-(4-fluorophenyl)-1H-benzo[d][1,2]oxazine-4-carboxamide]
≤ 0.01	0.01 to 0.1	O=C(N[C@H](CN1CCC1)[C@H](O)c1ccc(OC2CC2)cc1)C1=NOCc2cc(-c3ccc(F)cc3)ccc21 [Example 6, N-((1R,2R)-3-(azetidin-1-yl)-1-(4-cyclopropoxyphenyl)-1-hydroxypropan-2-yl)-7-(4-fluorophenyl)-1H-benzo[d][1,2]oxazine-4-carboxamide]
≤ 0.01	< 0.01	O=C(N[C@H](CN1CCC1)[C@H](O)c1ccc(OC2CC2)c(F)c1)C1=NOCc2cc(-c3ccc(F)cc3)ccc21 [Example 7, N-((1R,2R)-3-(azetidin-1-yl)-1-(4-cyclopropoxy-3-fluorophenyl)-1-hydroxypropan-2-yl)-7-(4-fluorophenyl)-1H-benzo[d][1,2]oxazine-4-carboxamide]
≤ 0.01	< 0.01	O=C(N[C@H](CN1CCCC1)[C@H](O)c1ccc(OC2CC2)c(F)c1)C1=NOCc2cc(-c3ccc(Cl)s3)ccc21 [Example 8, 7-(5-chlorothiophen-2-yl)-N-((1R,2R)-1-(4-cyclopropoxy-3-fluorophenyl)-1-hydroxy-3-(pyrrolidin-1-yl)propan-2-yl)-1H-benzo[d][1,2]oxazine-4-carboxamide]
≤ 0.01	< 0.01	O=C(N[C@H](CN1CCC1)[C@H](O)c1ccc(OC2CC2)c(F)c1)C1=NOCc2cc(-c3ccc(Cl)s3)ccc21 [Example 9, N-((1R,2R)-3-(azetidin-1-yl)-1-(4-cyclopropoxy-3-fluorophenyl)-1-hydroxypropan-2-yl)-7-(5-chlorothiophen-2-yl)-1H-benzo[d][1,2]oxazine-4-carboxamide]
≤ 0.01	0.01 to 0.1	O=C(N[C@H](CN1CCCC1)[C@H](O)c1ccc(OC2CC2)c(Cl)c1)C1=NOCc2cc(-c3ccc(Cl)s3)ccc21 [Example 10, N-((1R,2R)-1-(3-chloro-4-cyclopropoxyphenyl)-1-hydroxy-3-(pyrrolidin-1-yl)propan-2-yl)-7-(5-chlorothiophen-2-yl)-1H-benzo[d][1,2]oxazine-4-carboxamide]
